Test results reported in patent US5965544A, “Synthetic multivalent sLe^x containing polylactosamines and methods for use” (Glycim Oy, priority 1996, dated 1999).
“Also recorded” adds a separate entry of the source. Where two headings read alike, the source gives them in different places.

Columns and labels:
CD22 = details: cited from earlier work
[1] = tested on: P-selectin mediated inflammation; details: low concentrations; cited from earlier work
inflammation = details: cited from earlier work
[2] = tested on: L-selectin-dependent lymphocyte adhesion to cardiac endothelium; experiment: Stamper-Woodruff binding assay: lymphocyte adhesion to endothelium of rejecting cardiac transplants; type: cell-based, rat; details: rejecting cardiac allografts
Text: The inhibition of lymphocyte adhesion to cardiac endothelium during acute rejection episodes by oligosaccharides was examined using the family of oligosaccharides synthesized by enzyme-aided synthesis in Example 2: monovalent sLex tetrasaccharide (1), divalent sLex decasaccharide (4) and tetravalent sLex 22-meric oligosaccharide (9) and their non-fucosylated sialyl lactosamine analogues (3, 8). […] Concomitantly the non-fucosylated sialyl-lactosamine glycans were without effect.
In parallel experiments the capacity of the tetravalent sLex glycans 9 and 17, and of the nonfucosylated analogs glycan 8 and glycan 16, were compared in inhibiting L-selectin-dependent lymphocyte adhesion to cardiac endothelium during acute rejection. The lymphocytes were preincubated for 30 min with varying concentrations of the oligosaccharides and used thereafter in the Stamper-Woodruff binding assay in the incubation media as described in Example 1.

[3] = tested on: L-selectin-dependent lymphocyte adhesion to peritubular capillary endothelium (PTCE); experiment: Stamper-Woodruff binding assay: lymphocyte adhesion to peritubular capillary endothelium of rejecting kidney allografts; details: for inhibition of lymphocyte binding to PTCE (in words) / inhibitory capacity compared with other oligosaccharides (in words): rejecting kidney allografts; for IC50: read-out: IC50, inhibitory concentration preventing 50% of binding, L-selectin-dependent lymphocyte binding, rejecting rat kidney transplant
Text: The animal models for cardiac transplant rejection and kidney transplant rejection utilized inbred WF (RT1^v) and DA (RT1^a) rat strains that were maintained in a colony and regularly tested for intrastrain acceptance of transplants as well as for the absence of intrastrain mixed lymphocyte culture. DA transplants into WF recipients were allografts, WF grafts to WF and DA grafts to DA served as syngeneic controls.
Small pieces of the removed syngeneic (DA to DA and WF to WF), allogeneic (DA to WF) transplants were mounted in Tissue Tek medium (Lab-Tek Productions, Naperville, Ill.) and snapfrozen in liquid nitrogen. Eight μm thick frozen sections were prepared within one hour prior to the use of the sections in the lymphocyte--endothelium binding assay (Renkonen, R. et al., Transplantation 47:577-579 (1989); Renkonen, R. et al., Am. J. Pathol. 137:643-651 (1990); Turunen J. P. et al., Transplantation 54:1053-1058 (1992); Turunen, J. P. et al., Eur. J. Immunol. 24:1130-1136 (1994); Turunen, J. P. et al., J. Exp. Med., 182:1133-1142 (1995)).
Single cell suspensions of mesenterical lymph node lymphocytes were made by mechanical disaggregation in RPMI 1640 medium (Gibco, Grand Island, N.Y.) supplemented with Hepes (25 mM) and 0.5% fetal calf serum and the cells were passed through a 50 μm pore size mesh. Over 99% of the cells were lymphocytes, and the lymphocyte population consisted of 80-90% CD3-positive T cells, 50-60% CD4-positive T cells, 25-35% CD8-positive T cells and 10-20% CD19-positive B cells, as analyzed by flow cytometric analyses and immunoperoxidase stainings from cytocentrifuge preparations.
3×10^6 cells in 100 μl of the medium were plated on top of the tissue sections using a wax pen circle to avoid escape of the fluid. The sections were rotated horizontally on a shaker at 60 rpm for 30 minutes at +4° C. After incubation, the medium was gently tapped away by an absorbent paper and the slides were fixed in 1.5% cold glutaraldehyde overnight. The slides were stained with thionine for 30 min. The excess thionine was gently washed away from the slides in PBS, and the slides were mounted with PBS-glycerol (1:1) or Aquamount Mountant, (BHD Limited, Poole, England). From these preparations the number of lymphocytes bound to various structures was determined. At least 10-20 high power fields were analyzed from each sample and 3-4 animals were included in each group.
The oligosaccharides were dissolved in the binding buffer, and the lymphocytes were incubated in these solutions for 30 min in +4° C. Thereafter, the lymphocytes at the saccharide solutions were added to the Stamper-Woodruff binding assay without further washings and the assay was conducted as described above.
The lymphocytes were, or were not, pretreated for 30 min with various oligosaccharide constructs and added to the Stamper-Woodruff binding assay. After a 30 min binding assay the loose cells were washed away and the number of bound cells were determined.
The binding assays consisted of three experiments performed on separate days.

[4] = tested on: L-selectin-dependent lymphocyte adhesion to cardiac endothelium; details: lymphocytes and rejecting rat heart endothelium, Turunen et al. 1995; cited from earlier work
[5] = tested on: mouse sperm adhesion to eggs; details: Litscher et al. 1995; cited from earlier work
adhesion = details: Stoolman et al. 1984; cited from earlier work
[6] = listed as disialylated and difucosylated branched polylactosamine decasaccharide

CC(=O)N[C@H]1[C@H]([C@H](O)[C@H](O)CO)O[C@@](OC[C@H]2O[C@@H](O[C@H]3[C@H](O)[C@@H](NC(C)=O)C(O)O[C@@H]3CO)[C@H](O)[C@@H](O)[C@H]2O)(C(=O)O)C[C@@H]1O (stereo partly drawn) [NeuAca2-6GalB1-4GlcNAc]
binding / affinity to CD22 (CD22): binds specifically

NeuAcα2-3Galβ1-4(Fucα1-3)GlcNAc [Glycan 1]
inhibition of short-term P-selectin mediated inflammation [1]: inhibiting short-term P-selectin mediated inflammation
anti-inflammatory activity in vivo (inflammation): anti-inflammatory activity in vivo
inhibition of lymphocyte adhesion to cardiac endothelium (in words) [2]: significantly reduce lymphocyte binding
decrease of lymphocyte adhesion / prevented L-selectin-dependent lymphocyte binding ([3]; at 0.5 μM): 39%
inhibition of lymphocyte binding to PTCE (in words) [3]: able to inhibit the lymphocyte binding to PTCE significantly
published Stamper-Woodruff data compared with the present ones [4]: quite similar to the present ones

CC(=O)NC1C(O)OC(CO)C(OC2OC(CO)C(O)C(OC3OC(CO)C(OC4OC(CO)C(O)C(OC5OC(CO)C(O)C(O)C5O)C4O)C(O)C3NC(C)=O)C2O)C1O (stereo not drawn) [Galα1-3Galβ1-4GlcNAcβ1-3Galβ1-4GlcNAc]
inhibition of mouse sperm adhesion to eggs [5]: does not

fucoidin
concentration that blocked adhesion (adhesion): in the nM range

NeuAcα2-3Galβ1-4(Fucα1-3)GlcNAcβ1-3(NeuAcα2-3Galβ1-4(Fucα1-3)GlcNAcβ1-6)Galβ1-4GlcNAc [Glycan 4]
inhibition of lymphocyte adhesion to cardiac endothelium (in words) [2]: significantly reduce lymphocyte binding
IC50 [3]: 1000 nM
IC50 [3, 6]: 500 nM
inhibition of lymphocyte binding to PTCE (in words) [3]: able to inhibit the lymphocyte binding to PTCE significantly
inhibitory capacity compared with other oligosaccharides (in words) [3]: slightly weaker inhibitor than 28; also recorded: lesser inhibitory capacity than the alditol 28
inhibitory capacity compared with other oligosaccharides (in words) [3, 6]: less effective inhibitor
published Stamper-Woodruff data compared with the present ones [4]: quite similar to the present ones

NeuAcα2-3Galβ1-4GlcNAcβ1-3(NeuAcα2-3Galβ1-4GlcNAcβ1-6)Galβ1-4GlcNAcβ1-6(Galβ1-3)GalNAc-ol [Glycan 26]
inhibition of lymphocyte binding to PTCE (in words) [3]: practically devoid of inhibitory activity; also recorded: did not inhibit the lymphocyte binding at all; also recorded: did not possess any inhibitory activity
inhibition of lymphocyte binding to PTCE (in words) ([3]; listed as non-fucosylated O-glycosidic oligosaccharide alditol): did not possess any inhibitory activity
